Source: patent US5120730A, “Benzothiazepine esters, their preparation and formulations for therapeutic use” (IdB Holding SpA, priority 1990, dated 1992)
“Also recorded” adds a separate entry of the source. Where two headings read alike, the source gives them in different places.

Assays:
[1] = test system: isolated guinea pig atria; assay: Isolated guinea pig atria: force and frequency of spontaneous contractions; parameters: species or system guinea pig (Hartley-Dunkin); details: for inhibition at 10 µM / activation at 10 µM / IC25: Cavia porcellus; for inhibition at 10 µM: read-out: negative chronotropic effect; for activation at 10 µM: read-out: positive inotropic effect; for activity on force and frequency of the contractions (in words) / IC25: isolated guinea pig atria; for IC25: n = 6
Procedure: 1. The atria taken from Hartley-Dunkin guinea pigs of average weight 400-450 g were placed in an isolated organ bath of 15 ml containing a physiological Krebs solution (J. C. Doxey et al., Br. J. Pharmac. 78, 498, 1983) at a temperature of 30°±0.5° and oxygenated by means of a gaseous mixture composed of 95% of O2 and 5% of CO2. The force and frequency of the spontaneous contractions (T. De Gubareff and W. Sleaton Jr., J. Pharm. Exp. Ther., 148, 202, 1965) were recorded by means of an isometric force transducer. The concentration of product required to reduce the contraction force and frequency by 25% (IC25) and the relevant pIC25 were calculated.

isolated rat portal vein = assay: Isolated rat portal vein: force of spontaneous contraction; parameters: species or system rat (Sprague-Dawley); details: for selectivity, isolated vessels vs atria (in words): comparison of rat portal vein with guinea pig atria; for inhibition of contraction force (in words) / IC50: isolated rat portal vein; for IC50: 50% reduction of contraction force, n = 6, read-out: Contraction force pIC50 (converted)
From the text: 2. 2-3 cm strips of portal vein were taken from Sprague-Dawley rats of 220-250 g weight.

in vivo = details: rat
From the text: (§1) Sprague-Dawley rats of both sexes (5 male+5 female) were used for each experimental group.

[2] = rats
From the text: as §1

[3] = Haemodynamics in anaesthetized rats; type: in vivo, rat (Sprague-Dawley); details: for change in BP (systemic arterial pressure) / change in HR (heart rate) / change in LVP (left intraventricular pressure) / change in dp/dt: n = 6
Procedure: Male Sprague-Dawley rats of average weight 350-400 g, anaesthetized with sodium pentobarbital in an intraperitoneal dose of 60 mg/kg, underwent cannulation for measuring the following parameters: systemic arterial pressure (BP), heart rate (HR) left intraventricular pressure (LVP) and dp/dt.
After recording of the baseline values, the substances were injected by the intravenous route within a time of 30 seconds. The changes in the parameters indicated above were measured at times of 0.5-2-10 and 20 minutes.

## COc1ccc([C@@H]2Sc3ccccc3N(CCN(C)C)C(=O)[C@@H]2OC(=O)CCC(=O)O[C@H]2C(=O)N(CCN(C)C)c3ccccc3S[C@H]2c2ccc(OC)cc2)cc1 (relative stereo) [Ib, 3,3'-[(1,4-dioxo-1,4-butanediyl)-bis(oxy)] bis[(+)-cis-5-[2-(dimethylamino)ethyl]-2,3-dihydro-2-(4-methoxyphenyl)-1,5-benzothiazepin-4(5H)-one]]
[1]
  inhibition at 10 µM: 5%
  activation at 10 µM: 12%
  activity on force and frequency of the contractions (in words): virtually inactive; also recorded: free of the negative chronotropic and inotropic effects
Isolated rat portal vein
  selectivity, isolated vessels vs atria (in words): selective activity on the isolated vessels
  inhibition of contraction force (in words): antagonize the contraction force in a dose-dependent manner; also recorded: significantly inhibit the contraction force
  IC50: 2340 nM
In vivo; ip
  LD50 at 336 h: 600 mg/kg
In vivo; po
  LD50 at 336 h: 881 mg/kg
[2]
  toxicity versus diltiazem, intraperitoneal (in words): less toxic than the reference product
  toxicity versus diltiazem, oral (in words): LD50 comparable with that of diltiazem

## COc1ccc([C@@H]2Sc3ccccc3N(CCN(C)C)C(=O)[C@@H]2OC(C)=O)cc1 [Diltiazem, (+)-Cis-5-[2-(dimethylamino)ethyl]-3-acetoxy-2,3-dihydro-2-(4-methoxyphenyl)-1,5-benzothiazepin-4(5H)-one, reference compound]
[1]; 25% reduction of contraction force, read-out: Contraction force pIC25 (converted)
  IC25: 513 nM
[1]; 25% reduction of contraction frequency, read-out: Frequency pIC25 (converted)
  IC25: 355 nM
[1]
  activity on force and frequency of the contractions (in words): significant activity
Isolated rat portal vein
  IC50: 813 nM
[3]; 0.35 μmol/kg i.v., 0.5 minutes
  change in BP (systemic arterial pressure): -21 mmHg
  change in HR (heart rate): -4 bpm
  change in LVP (left intraventricular pressure): -18 mmHg
  change in dp/dt: -150 mmHg/sec
[3]; 0.35 μmol/kg i.v., 2 minutes
  change in BP (systemic arterial pressure): -1 mmHg
  change in HR (heart rate): +6 bpm
  change in LVP (left intraventricular pressure): -1 mmHg
  change in dp/dt: -25 mmHg/sec
[3]; 0.35 μmol/kg i.v., 10 minutes
  change in BP (systemic arterial pressure): +6 mmHg
  change in HR (heart rate): +10 bpm
  change in LVP (left intraventricular pressure): +2 mmHg
  change in dp/dt: -17 mmHg/sec
[3]; 0.35 μmol/kg i.v., 20 minutes
  change in BP (systemic arterial pressure): +1 mmHg
  change in HR (heart rate): +3 bpm
  change in LVP (left intraventricular pressure): -5 mmHg
  change in dp/dt: -183 mmHg/sec
[3]; 0.7 μmol/kg i.v.
  effect on all observed parameters (in words): significantly reduces all the observed parameters
  effect on heart rate and contractility (in words): significant cardiodepressive effect
[3]; 0.70 μmol/kg i.v., 0.5 minutes
  change in BP (systemic arterial pressure): -52 mmHg
  change in HR (heart rate): -83 bpm
  change in LVP (left intraventricular pressure): -46 mmHg
  change in dp/dt: -658 mmHg/sec
[3]; 0.70 μmol/kg i.v., 2 minutes
  change in BP (systemic arterial pressure): -34 mmHg
  change in HR (heart rate): -99 bpm
  change in LVP (left intraventricular pressure): -24 mmHg
  change in dp/dt: -375 mmHg/sec
[3]; 0.70 μmol/kg i.v., 10 minutes
  change in BP (systemic arterial pressure): -16 mmHg
  change in HR (heart rate): -5 bpm
  change in LVP (left intraventricular pressure): -4 mmHg
  change in dp/dt: -108 mmHg/sec
[3]; 0.70 μmol/kg i.v., 20 minutes
  change in BP (systemic arterial pressure): +9 mmHg
  change in HR (heart rate): +7 bpm
  change in LVP (left intraventricular pressure): -7 mmHg
  change in dp/dt: -92 mmHg/sec

## COc1ccc([C@@H]2Sc3ccccc3N(CCN(C)C)C(=O)[C@@H]2OC(=O)/C=C/C(=O)O[C@H]2C(=O)N(CCN(C)C)c3ccccc3S[C@H]2c2ccc(OC)cc2)cc1 [Ia, 3,3'-[(2E)-(1,4-dioxo-1,4-butenediyl)-bis(oxy)]bis[(+)-cis-5-[2-(dimethylamino)ethyl]-2,3-dihydro-2-(4-methoxyphenyl)-1,5-benzothiazepin-4-(5H)-one]]
[1]
  inhibition at 10 µM: 5%
  activation at 10 µM: 6%
  activity on force and frequency of the contractions (in words): virtually inactive; also recorded: free of the negative chronotropic and inotropic effects
Isolated rat portal vein
  selectivity, isolated vessels vs atria (in words): selective activity on the isolated vessels
  inhibition of contraction force (in words): antagonize the contraction force in a dose-dependent manner; also recorded: significantly inhibit the contraction force
  IC50: 3980 nM
In vivo; ip
  LD50 at 336 h: 250 mg/kg
In vivo; po
  LD50 at 336 h: > 1500 mg/kg
[2]
  toxicity versus diltiazem, intraperitoneal (in words): less toxic than the reference product
  toxicity versus diltiazem, oral (in words): less toxic
[3]; 0.35 μmol/kg i.v., 0.5 minutes
  change in BP (systemic arterial pressure): -32 mmHg
  change in HR (heart rate): -19 bpm
  change in LVP (left intraventricular pressure): -29 mmHg
  change in dp/dt: -31 mmHg/sec
[3]; 0.35 μmol/kg i.v., 2 minutes
  change in BP (systemic arterial pressure): -16 mmHg
  change in HR (heart rate): -19 bpm
  change in LVP (left intraventricular pressure): -11 mmHg
  change in dp/dt: -20 mmHg/sec
[3]; 0.35 μmol/kg i.v., 10 minutes
  change in BP (systemic arterial pressure): +2 mmHg
  change in HR (heart rate): -9 bpm
  change in LVP (left intraventricular pressure): -2 mmHg
  change in dp/dt: -67 mmHg/sec
[3]; 0.35 μmol/kg i.v., 20 minutes
  change in BP (systemic arterial pressure): -8 mmHg
  change in HR (heart rate): -14 bpm
  change in LVP (left intraventricular pressure): -11 mmHg
  change in dp/dt: -25 mmHg/sec
[3]; 0.7 μmol/kg i.v.
  effect on heart rate and contractility (in words): without altering the heart rate and contractility parameters
  hypotensive activity (in words): significant and lasting hypotensive activity
[3]; 0.70 μmol/kg i.v., 0.5 minutes
  change in BP (systemic arterial pressure): -32 mmHg
  change in HR (heart rate): -19 bpm
  change in LVP (left intraventricular pressure): -33 mmHg
  change in dp/dt: -15 mmHg/sec
[3]; 0.70 μmol/kg i.v., 2 minutes
  change in BP (systemic arterial pressure): -33 mmHg
  change in HR (heart rate): -11 bpm
  change in LVP (left intraventricular pressure): -32 mmHg
  change in dp/dt: -20 mmHg/sec
[3]; 0.70 μmol/kg i.v., 10 minutes
  change in BP (systemic arterial pressure): -22 mmHg
  change in HR (heart rate): -13 bpm
  change in LVP (left intraventricular pressure): -32 mmHg
  change in dp/dt: -16 mmHg/sec
[3]; 0.70 μmol/kg i.v., 20 minutes
  change in BP (systemic arterial pressure): -25 mmHg
  change in HR (heart rate): -9 bpm
  change in LVP (left intraventricular pressure): -32 mmHg
  change in dp/dt: -20 mmHg/sec
[3]; conclusion from in vivo and in vitro results
  selectivity of action (in words): selective action on the smooth vessel musculature
